What was measured:
CYP2J2 [1] = test system: CYP2J2
Method: The human ES cell line (H7 ESCs) with a knocked in, constitutively expressed Genetically Encoded Calcium Indicator (GECI) GCaMP6s was maintained on matrigel coated plates in StemMACS™ iPS-Brew XF (Miltenyi Biotec) and passaged in clumps using Collagenase IV (1 mg/mL) enzymatic treatment. For differentiation, ESCs were passaged in single cells using Accutase (Nacalai Tesque), and subjected to the previously established small molecule based GiWi cardiomyocyte differentiation protocol. At Day 7, the media was replaced with RPMI1640 (HyClone) supplemented with B27 with insulin (B27+) (Miltenyi Biotec) for maturation and refreshed every 2 days. […] The cardiomyocytes (H7 CMs) were used for siRNA transfections on day 28. […]
RNA samples (250 ng) were reverse transcribed to obtain cDNA using High-Capacity cDNA Reverse Transcription Kit (Applied Biosystems, U.S.A.). qPCR was performed using the FAST SYBR Green Mix (Applied Biosystems, U.S.A.) on 5 ng of cDNA. ΔΔCT-based relative quantification method was adopted for qPCR analysis using the QuantStudio 5 384-well Block Real-Time PCR system (Applied Biosystems, U.S.A.). The threshold cycle was determined to be Data is presented as fold-change where CT values were normalised to β-ACT/N. Data presented are representative of two independent experiments with error bars indicative of the standard deviation (SD) unless otherwise stated.

H9c2 cells [2] = experiment: Mitochondrial membrane potential (Δψm) dissipation, TMRM dye; type: cell-based; conditions: pre-treatment, then dronedarone at 5 μM
Method: (§1) H9c2 cell line was purchased from American Tissue Type Collection (ATCC) (Manassas, Va.). The cells were cultured in low-glucose DMEM growth media (Cat No: 31600, Thermo Fisher Scientific, Waltham, Mass.) supplemented with 1.5 g/L sodium bicarbonate, 25 mM HEPES, 10% fetal bovine serum (FBS) (GE Healthcare, Singapore), 100 units/mL penicillin, 100 μg/mL streptomycin and 250 ng/mL amphotericin B in 75-cm^2 tissue-culture flasks at 37° C. in a humidified atmosphere of 5% CO2. Cells were fed every 2-3 days and sub-cultured once 70-80% confluency was achieved to prevent the loss of differentiation potential. For differentiation, H9c2 cells were seeded at a density of 100,000 cells/well in 12-well plates. The cells were maintained for 1 day in low-glucose high-serum growth media to allow for cell attachment. Subsequently, cells were differentiated using 1 μM ATRA.
Dissipation of Δψm by each test compound was measured using mitochondrial permeable dye, tetramethylrhodamine methyl ester perchlorate (TMRM) (Thermo Fisher Scientific, Waltham, Mass.). […] The media was aspirated, the cells were washed with PBS and fluorescence was measured at 557 nm excitation and 570 nm emission wavelengths. […] The media was aspirated and then the cells were treated with dronedarone and the dissipation of Δψm by AADs was measured as described.

H9c2 cells [3] = experiment: Reduction of intracellular ATP (Mitochondrial ToxGlo) in differentiated H9c2 cells; type: cell-based; conditions: 0-1 μM pre-treatment 2 h, then dronedarone
Method: as §1
H9c2 cells were seeded in a white chimney plate and differentiated. The media was changed to DMEM with 10 mM galactose, 2 mM glutamine (6 mM final), 5 mM HEPES, 1 mM sodium pyruvate, 100 U/mL penicillin, 100 μg/mL streptomycin, 0.25 μg/mL amphotericin B, 1% FBS, 1× insulin-transferrin-selenium and 1 μM ATRA for 48 h to overcome the Crabtree effect. […] The cytotoxicity and intracellular ATP content were measured concurrently using Mitochondrial ToxGlo™ kit (Promega, Madison, Wis.) using manufacturer's protocol. Mitochondrial ToxGlo™ assay measures the cell viability using fluorogenic peptide bis-alanine-alanine-phenylalanine-R110 (bis-AAF-R110). Bis-AAF-R110 is a selective peptide that measures protease activity in dead cells since it is impermeable to live cells. Here, the fluorescence derived from metabolized bis-AAF-R110 was measured at different concentrations of the test compounds and compared to control. As the concentration of cytotoxic compound increases, the number of dead cells increases, leading to a higher fluorescence signal. ATP is measured by adding the ATP Detection Reagent, resulting in cell lysis and generation of a luminescent signal proportional to the amount of ATP present. […]

CYP2J2 [4] = molecular target: T1, CYP2J2 (Homo sapiens, UniProt P51589); experiment: Time- and concentration-dependent inactivation (MBI) of CYP2J2, rivaroxaban as probe substrate; type: biochemical; design: purchased BD Gentest (Woburn, Mass.)
T1 sequence (P51589 1-502): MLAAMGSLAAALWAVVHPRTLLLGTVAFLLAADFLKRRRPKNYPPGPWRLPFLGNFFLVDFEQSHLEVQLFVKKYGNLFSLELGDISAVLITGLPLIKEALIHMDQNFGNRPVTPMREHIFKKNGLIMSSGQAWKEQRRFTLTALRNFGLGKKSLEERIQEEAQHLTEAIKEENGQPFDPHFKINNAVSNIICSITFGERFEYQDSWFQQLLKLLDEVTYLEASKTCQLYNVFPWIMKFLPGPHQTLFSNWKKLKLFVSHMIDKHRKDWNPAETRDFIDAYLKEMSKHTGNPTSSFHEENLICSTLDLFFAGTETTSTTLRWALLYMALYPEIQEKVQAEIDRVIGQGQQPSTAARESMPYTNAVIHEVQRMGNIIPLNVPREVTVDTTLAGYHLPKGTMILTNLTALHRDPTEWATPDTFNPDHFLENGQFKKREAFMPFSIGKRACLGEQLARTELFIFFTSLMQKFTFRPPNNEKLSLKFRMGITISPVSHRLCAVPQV
Method: Incubations were conducted in triplicates in 96-well plates. Primary incubation mixtures comprising various concentrations of inhibitor (0-20 μM) were pre-incubated at 37° C. for 3 min with CYP450 enzymes (20 pmol/m L) and NADPH B in potassium phosphate buffer (100 mM, pH 7.4). To initiate the enzymatic reaction, 5 μL NADPH A was added to the primary incubation. The final primary incubation mixture volume was 100 μL and contained <1% v/v organic solvent. At different pre-incubation time points (3, 8, 15, 22, 30, and 45 min) after the addition of NADPH A, 5 μL aliquots of the primary incubation were transferred to 95 μL of the secondary incubation containing 50 μM rivaroxaban, the NADPH A and B, and potassium phosphate buffer (100 mM, pH 7.4) to yield a 20-fold dilution. The secondary incubation mixtures were incubated at 37° C. for 30 min with CYP2J2, before 80 μL aliquots were removed and quenched with an equal volume of ice-cold ACN containing 4 μM dexamethasone as IS. The samples were then centrifuged at 3220 g at 4° C. for 30 min before transferring the supernatant to a 96-well plate for liquid chromatography-tandem mass spectrometry (LC-MS/MS) analysis. The main rivaroxaban metabolite, morpholinone hydroxylated metabolite, was quantified using LC-MS/MS analysis.
The mean of triplicate peak area ratios for each concentration and pre-incubation time was normalized to that of 0 μM with the same pre-incubation time. The amount of rivaroxaban metabolite formed during the secondary incubation, a measure of the probe substrate activity remaining, was computed and the natural logarithm of this measure was plotted against inactivation pre-incubation time for each inactivator concentration. […]
In equation 1, kinact=maximum inactivation rate constant at infinite inactivator concentration (in min^−1); KI=concentration of inactivator at the half-maximal rate constant of inactivation (in μM); [I]=in vitro inactivator concentration (in μM). MBI potency (kinact/KI ratio, μM-1·min-1) against human recombinant CYP2J2 is determined for each compound. […]

dogs = experiment: Electrophysiological variables (AERP, VERP, repolarization periods) in halothane-anesthetized dogs; type: in vivo, dog; conditions: 3 mg/kg
Method: Animals were obtained through Kitayama Labes Co., Ltd. (Nagano, Japan). All experiments were approved by the Toho University Animal Care and User Committee (No. 18-51-395) and performed according to the Guideline for the Care and Use of Laboratory Animals of Toho University.
The dogs were initially anesthetized with thiopental sodium (30 mg/kg, i.v.). After intubation with a cuffed endotracheal tube, anesthesia was maintained by inhalation of halothane (1% v/v) vaporized in oxygen with a volume-limited ventilator (SN-480-3; Shinano Manufacturing Co., Ltd., Tokyo, Japan). Tidal volume and respiratory rate were set at 20 mL/kg and 15 breaths/min, respectively. […] To prevent blood clotting, heparin calcium (100 IU/kg) was intravenously administered through a flush line of the catheter sheath placed at the right femoral vein.
The lead II electrocardiogram was obtained from the limb electrodes. The P-wave duration, PR interval, QRS width and QT interval were measured, and QT interval was corrected with Van de Water's formula: QTc=QT-0.087×(RR-1,000) with RR given in ms. The J-Tpeak and Tpeak-Tend were measured as follows. When the end of T-wave was obscure, we used the monophasic action potential (MAP) signal as a guide to estimate the end. The J-Tpeak was corrected for the heart rate with a coefficient as previously described (J-Tpeakc=J-Tpeak/RR^0.58 with RR given in seconds).
A standard 6-French, quad-polar electrodes catheter (Cordis-Webster Inc., Baldwin Park, Calif., USA) was positioned at the non-coronary cusp of the aortic valve through the left femoral artery to obtain the His bundle electrogram. Another 6-French, quad-polar electrode catheter (Cordis-Webster Inc.) was positioned at the sinus nodal areas of the right atrium through the right femoral vein to electrically pace and to record the local electrogram. A bi-directional steerable MAP recording/pacing combination catheter (1675P; EP Technologies, Inc., CA, USA) was positioned at the endocardium of the interventricular septum in the right ventricle through the left femoral vein to obtain MAP signals. The signals were amplified with a DC preamplifier (model 300; EP Technologies, Inc.). The duration of the MAP signals was measured as an interval, along a horizontal line corresponding to the diastolic baseline, from the MAP upstroke to the desired repolarization level. The interval (ms) at 90% repolarization was defined as MAP90.
The heart was electrically driven with a cardiac stimulator (SEC-3102; Nihon Kohden Co., Ltd.) via the pacing electrodes of the combination catheter placed in the right ventricle or the electrodes of the catheter placed at the right atrium. The stimulation pulses were rectangular in shape, 1-2 V (about twice the threshold voltage) and 1 ms duration. The MAP90 of the ventricle was measured during sinus rhythm (MAP90(sinus)) and at a pacing cycle length of 400 ms (MAP90(CL400)) and 300 ms (MAP90(CL300)). The atrial effective refractory period (AERP) and ventricular effective refractory period (VERP) were assessed with the programmed electrical stimulation. The pacing protocol consisted of 5 beats of basal stimuli in a cycle length of 400 ms followed by an extra stimulus of various coupling intervals. Starting in the late diastole, the coupling interval was shortened in 5-ms decrements until the additional stimulus could no longer elicit a response. The AERP and VERP were defined as the shortest coupling interval that could produce a response. The duration of the terminal repolarization period of the ventricle, reflecting phase-3 repolarization time of the action potential, was calculated by the difference between the MAP90(CL400) and VERP (terminal repolarization period=MAP90(CL400)−VERP) at the same site to estimate the extent of electrical vulnerability of the ventricular muscle.

hiPSC-CM = experiment: Extracellular field potential duration (FPD), multi electrode array; type: cell-based, human; conditions: MEA, 0-10 μM
Method: Electrophysiological perturbations of hiPSC-CM were measured using multi electrode array (MEA) recording system (Multichannel Systems, Reutlingen, Germany). […] FPD measurements were normalized (corrected FPD [cFPD]) to the beating rate of the contracting areas with the Bazzet correction formula: cFPD=FPD/√(RR interval) as described previously^3. One-phase decay algorithm was used to plot corrected FPD curves.

In the case of “siRNA1: Accell self-delivery siRNA against CYP2J2, CUCAGGUGUAAUAUUGUUA, SEQ ID NO: 1 (Accell self-delivery modifications, pattern not given here)”, the “knockdown of CYP2J2, in words” value (CYP2J2 [1]) is reported as “most effective”.
`CCCCCC1OC1C/C=C\C/C=C\C/C=C\CCCC(=O)O` (stereo not shown) [14,15-EET] was tested, and the “effect of pre-treatment on dronedarone-induced Δψm dissipation” value (H9c2 cells [2]) was “concentration-dependent mitigation of Δψm dissipation” and the “effect of pre-treatment on dronedarone-induced decrease in intracellular ATP” value (H9c2 cells [3]) was “mitigated the decrease in intracellular ATP levels in a concentration-dependent manner”.
For `Cl.[2H]c1c([2H])c(C(=O)c2c(CCCC)oc3ccc(NS(C)(=O)=O)cc23)c([2H])c([2H])c1OCCCN(CCCC)CCCC` [Compound 2], the “inactivation (MBI) of CYP2J2, in words” value (CYP2J2 [4]) was “inactivated CYP2J2 in a time- and concentration-dependent manner”.
`CCCCc1oc2ccccc2c1C(=O)c1cc(I)c(OCCN(CC)CC)c(I)c1` [Amiodarone] was tested, and the “ΔJ-Tpeakc (early repolarization period)” value (dogs; 15 min after administration) was −10, the “ΔTRP (terminal repolarization period)” value (dogs; 15 min after administration) was −11 and the “ΔTpeak-Tend (late repolarization period)” value (dogs; 15 min after administration) was “+18”. For the same compound, the ΔAERP (dogs; 60 min after administration) was “+29”, the ΔVERP (dogs; 60 min after administration) was “+18” and the “effect on extracellular field potential duration (FPD)” value (hiPSC-CM) was “Dose-dependent increase in the FPD”.
For `CC(C)COCC(CN(Cc1ccccc1)c1ccccc1)N1CCCC1` (stereo not shown) [bepridil], the “Atrial selectivity (ΔAERP/ΔVERP)” value (dogs; 10 min after administration) was 3.0, the ΔAERP (dogs; 10 min after administration) was “+53” and the ΔVERP (dogs; 10 min after administration) was “+55”. The “ΔJ-Tpeakc (early repolarization period)” value (dogs; 20 min after administration) was “+31”, the “ΔTRP (terminal repolarization period)” value (dogs; 20 min after administration) was “+4” and the “ΔTpeak-Tend (late repolarization period)” value (dogs; 20 min after administration) was “+14”.
`CC(C)NCC(O)c1ccc(NS(C)(=O)=O)cc1` (racemic) [dl-sotalol] was tested, and the “ΔJ-Tpeakc (early repolarization period)” value (dogs; 10 min after administration) was “+35”, the “ΔTRP (terminal repolarization period)” value (dogs; 10 min after administration) was −1 and the “ΔTpeak-Tend (late repolarization period)” value (dogs; 10 min after administration) was “+17”. The “Atrial selectivity (ΔAERP/ΔVERP)” value (dogs; 20 min after administration) was 1.1, the ΔAERP (dogs; 20 min after administration) was “+60” and the ΔVERP (dogs; 20 min after administration) was “+53”. The “Atrial selectivity (ΔAERP/ΔVERP)” value (dogs; 30 min after administration) was 1.0, the ΔAERP (dogs; 30 min after administration) was “+56” and the ΔVERP (dogs; 30 min after administration) was “+54”.

Reference: patent US20220267288A1, “CARDIAC THERAPEUTIC” (priority 2019, published 2022)
